The text below walks through data of patent US9926302B2, “Heteroaryl substituted heterocyclyl sulfones” (priority 2014, dated 2018).

The target in the first assay is T1, Human CaV2.2 channels (Homo sapiens, UniProt Q00975).
T1 construct: expressed in transfected cells
T1 sequence (P54289 947-1103): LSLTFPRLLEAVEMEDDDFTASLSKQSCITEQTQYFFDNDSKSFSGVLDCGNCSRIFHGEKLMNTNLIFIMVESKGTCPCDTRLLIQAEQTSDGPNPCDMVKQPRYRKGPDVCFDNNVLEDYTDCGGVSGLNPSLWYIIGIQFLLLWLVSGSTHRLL
T1 sequence (P54289 25-946): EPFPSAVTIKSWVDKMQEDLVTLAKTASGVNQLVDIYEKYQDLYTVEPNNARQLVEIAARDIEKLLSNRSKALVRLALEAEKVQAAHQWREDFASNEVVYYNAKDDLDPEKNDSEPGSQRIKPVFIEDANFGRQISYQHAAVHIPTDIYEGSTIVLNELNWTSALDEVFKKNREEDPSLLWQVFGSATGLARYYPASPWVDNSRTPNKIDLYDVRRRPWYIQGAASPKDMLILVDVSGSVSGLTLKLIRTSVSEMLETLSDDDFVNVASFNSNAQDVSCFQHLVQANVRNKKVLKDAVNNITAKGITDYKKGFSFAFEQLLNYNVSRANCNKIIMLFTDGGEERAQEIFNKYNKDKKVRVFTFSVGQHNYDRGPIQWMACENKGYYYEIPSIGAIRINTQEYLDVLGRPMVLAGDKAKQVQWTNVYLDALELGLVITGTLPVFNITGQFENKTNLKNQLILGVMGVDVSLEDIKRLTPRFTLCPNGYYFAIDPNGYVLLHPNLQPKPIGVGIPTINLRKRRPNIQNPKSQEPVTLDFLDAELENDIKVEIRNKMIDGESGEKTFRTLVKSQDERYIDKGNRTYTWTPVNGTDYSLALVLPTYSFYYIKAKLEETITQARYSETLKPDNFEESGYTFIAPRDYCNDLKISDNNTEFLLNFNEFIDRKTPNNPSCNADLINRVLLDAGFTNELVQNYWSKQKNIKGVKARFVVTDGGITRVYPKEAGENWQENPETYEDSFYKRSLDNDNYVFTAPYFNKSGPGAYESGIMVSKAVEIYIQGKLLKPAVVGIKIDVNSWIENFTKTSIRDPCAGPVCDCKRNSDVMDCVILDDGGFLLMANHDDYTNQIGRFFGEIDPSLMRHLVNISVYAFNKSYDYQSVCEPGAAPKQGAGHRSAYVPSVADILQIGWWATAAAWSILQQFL
T1 sequence (P54284 whole entry, further chain): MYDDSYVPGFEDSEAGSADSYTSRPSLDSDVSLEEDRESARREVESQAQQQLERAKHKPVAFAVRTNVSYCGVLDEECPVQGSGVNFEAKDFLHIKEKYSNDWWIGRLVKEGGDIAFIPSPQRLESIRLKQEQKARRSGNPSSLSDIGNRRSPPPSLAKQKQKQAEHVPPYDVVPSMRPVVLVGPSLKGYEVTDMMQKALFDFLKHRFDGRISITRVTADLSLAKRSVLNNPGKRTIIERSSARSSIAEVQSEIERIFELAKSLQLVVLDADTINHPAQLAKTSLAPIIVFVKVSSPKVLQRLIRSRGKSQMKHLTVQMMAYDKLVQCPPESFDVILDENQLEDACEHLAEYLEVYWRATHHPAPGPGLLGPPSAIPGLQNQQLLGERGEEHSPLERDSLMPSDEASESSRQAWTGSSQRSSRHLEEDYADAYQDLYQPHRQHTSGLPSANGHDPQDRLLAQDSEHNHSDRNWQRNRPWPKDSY
T1 sequence (Q00975 whole entry): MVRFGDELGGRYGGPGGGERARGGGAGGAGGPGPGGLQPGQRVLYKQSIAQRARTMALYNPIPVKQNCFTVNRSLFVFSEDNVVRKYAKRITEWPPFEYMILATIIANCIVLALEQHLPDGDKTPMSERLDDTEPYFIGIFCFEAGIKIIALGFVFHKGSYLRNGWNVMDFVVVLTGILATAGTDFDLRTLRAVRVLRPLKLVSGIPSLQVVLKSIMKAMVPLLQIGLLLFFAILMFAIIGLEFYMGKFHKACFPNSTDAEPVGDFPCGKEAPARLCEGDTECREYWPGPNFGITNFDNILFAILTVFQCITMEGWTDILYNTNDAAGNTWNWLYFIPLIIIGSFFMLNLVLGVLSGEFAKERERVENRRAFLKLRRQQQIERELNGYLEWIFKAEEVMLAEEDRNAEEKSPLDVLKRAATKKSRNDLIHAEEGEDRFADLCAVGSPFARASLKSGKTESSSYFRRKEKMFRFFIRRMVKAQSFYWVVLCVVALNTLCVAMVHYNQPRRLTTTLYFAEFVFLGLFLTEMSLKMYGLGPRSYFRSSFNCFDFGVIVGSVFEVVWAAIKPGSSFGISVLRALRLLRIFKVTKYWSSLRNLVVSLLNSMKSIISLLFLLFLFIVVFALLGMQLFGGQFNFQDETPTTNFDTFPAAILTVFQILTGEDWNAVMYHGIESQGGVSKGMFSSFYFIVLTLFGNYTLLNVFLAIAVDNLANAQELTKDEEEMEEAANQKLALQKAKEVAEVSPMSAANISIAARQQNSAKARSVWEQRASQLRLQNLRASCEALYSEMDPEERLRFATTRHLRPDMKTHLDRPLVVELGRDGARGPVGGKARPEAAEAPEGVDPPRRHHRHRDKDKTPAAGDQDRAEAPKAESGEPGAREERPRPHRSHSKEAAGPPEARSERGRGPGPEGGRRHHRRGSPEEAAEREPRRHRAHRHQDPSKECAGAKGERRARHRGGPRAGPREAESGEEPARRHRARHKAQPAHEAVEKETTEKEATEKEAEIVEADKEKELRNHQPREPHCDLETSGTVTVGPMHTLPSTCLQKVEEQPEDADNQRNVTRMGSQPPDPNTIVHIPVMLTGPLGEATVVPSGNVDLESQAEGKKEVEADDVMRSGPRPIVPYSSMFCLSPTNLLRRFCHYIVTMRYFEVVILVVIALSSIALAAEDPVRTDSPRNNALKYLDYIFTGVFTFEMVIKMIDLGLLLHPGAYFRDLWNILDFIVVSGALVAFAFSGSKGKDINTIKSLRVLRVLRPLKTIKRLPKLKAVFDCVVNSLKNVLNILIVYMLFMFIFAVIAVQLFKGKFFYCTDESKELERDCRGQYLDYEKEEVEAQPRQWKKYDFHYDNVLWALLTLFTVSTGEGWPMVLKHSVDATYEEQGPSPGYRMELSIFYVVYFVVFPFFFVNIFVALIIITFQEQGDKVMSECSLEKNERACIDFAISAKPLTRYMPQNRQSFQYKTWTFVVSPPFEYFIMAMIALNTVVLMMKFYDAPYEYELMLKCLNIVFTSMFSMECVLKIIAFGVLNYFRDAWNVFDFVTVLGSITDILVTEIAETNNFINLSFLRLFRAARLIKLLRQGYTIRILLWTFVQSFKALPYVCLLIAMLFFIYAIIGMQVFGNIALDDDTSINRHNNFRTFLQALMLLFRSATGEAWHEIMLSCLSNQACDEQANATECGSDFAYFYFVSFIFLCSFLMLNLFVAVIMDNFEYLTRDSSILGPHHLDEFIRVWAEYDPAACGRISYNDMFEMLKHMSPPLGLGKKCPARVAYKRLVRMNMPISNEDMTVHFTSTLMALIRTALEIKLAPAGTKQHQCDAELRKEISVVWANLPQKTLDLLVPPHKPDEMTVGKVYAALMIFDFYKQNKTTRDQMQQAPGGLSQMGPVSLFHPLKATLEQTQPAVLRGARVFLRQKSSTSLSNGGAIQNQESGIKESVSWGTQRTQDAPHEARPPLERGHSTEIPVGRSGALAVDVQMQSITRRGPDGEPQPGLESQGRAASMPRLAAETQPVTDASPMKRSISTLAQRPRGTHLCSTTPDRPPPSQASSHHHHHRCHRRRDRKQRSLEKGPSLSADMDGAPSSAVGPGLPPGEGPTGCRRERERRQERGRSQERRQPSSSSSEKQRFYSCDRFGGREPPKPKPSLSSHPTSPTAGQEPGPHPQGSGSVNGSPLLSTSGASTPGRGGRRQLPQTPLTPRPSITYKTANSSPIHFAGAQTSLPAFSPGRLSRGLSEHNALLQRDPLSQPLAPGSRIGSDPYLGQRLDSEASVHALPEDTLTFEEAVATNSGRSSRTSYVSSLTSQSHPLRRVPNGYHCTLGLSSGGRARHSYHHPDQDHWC
In words: Fluorescence assay for CaV2.2 channels using potassium depolarization to induce channel opening (FLIPR, Fluo 4). The format is cell-based. The following applies: 3 μM test compound; alternative assay buffer 30 mM KCl (inactivated channel state); HEK293 cells stably expressing human CaV2.2. The procedure, abridged: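 HEK293 cells stably co-expressing CaV2.2 with alpha2-delta and beta subunits plus Kir2.3, loaded with 2 μM Fluo 4 and pre-incubated 15 min at 25° C with compound in 1 mM or 30 mM KCl buffer (pH 7.4; latter promotes inactivated state). Depolarized by KCl addition; peak fluorescence amplitude normalized to baseline gives inhibition.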
For the compound `CC1(S(=O)(=O)c2cccc(C(F)(F)F)c2)CCOC(c2ccc(C3CC3)nc2)C1` (stereo not shown) [SC-348, 2-Cyclopropyl-5-[4-methyl-4-[[3-(trifluoromethyl)phenyl]sulfonyl]-tetrahydro-pyran-2-yl]-pyridine], the “Activity Category: %-Inhib (CaV2.2) @3 μM @30 mM KCl” value was “A (%-Inhibition >95%)”.

Consider `COc1ccc(C2CC(C)(S(=O)(=O)c3cccc(C(F)(F)F)c3)CCO2)cn1` (stereo not shown) [SC-354, 2-Methoxy-5-[4-methyl-4-[[3-(trifluoromethyl)phenyl]sulfonyl]-tetrahydro-pyran-2-yl]-pyridine], for which the “Activity Category: %-Inhib (CaV2.2) @3 μM @30 mM KCl” value is “A (%-Inhibition >95%)”. Same read-out and setting: the entry for `CC1(S(=O)(=O)c2cccc(C(F)(F)F)c2)CCOC(c2ncc(C(F)(F)F)cc2S(C)(=O)=O)C1` (stereo not shown) [SC-356, 3-Methylsulfonyl-2-[4-methyl-4-[[3-(trifluoromethyl)phenyl]sulfonyl]-tetrahydro-pyran-2-yl]-5-(trifluoromethyl)-pyridine] is “A (%-Inhibition >95%)”.

The same assay, now with this note: HEK293, 3 μM test compound; alternative assay buffer 30 mM KCl (inactivated channel state); HEK293 cells stably expressing human CaV2.2; read-out: Activity Category: %-Inhib (CaV2.2) @3 μM @30 mM KCl.
In the case of `O=S(=O)(c1cccc(C(F)(F)F)c1)C1CCOC(c2cccc(C(F)(F)F)n2)C1` (stereo not shown) [SC-350, 2-(Trifluoromethyl)-6-[4-[[3-(trifluoromethyl)phenyl]sulfonyl]-tetrahydro-pyran-2-yl]-pyridine], the inhibition at 3 µM is over 95%. As to `COc1ccc(C2CC(C)(S(=O)(=O)c3cccc(C(F)(F)F)c3)CCO2)cn1` (stereo not shown) [SC-353, 2-Methoxy-5-[4-methyl-4-[[3-(trifluoromethyl)phenyl]sulfonyl]-tetrahydro-pyran-2-yl]-pyridine], the inhibition at 3 µM fell in the range of 75 to 95%. Take `CC1(S(=O)(=O)c2cccc(C(F)(F)F)c2)CCOC(c2ncc(C(F)(F)F)cc2S(C)(=O)=O)C1` (stereo not shown) [SC-355, 3-Methylsulfonyl-2-[4-methyl-4-[[3-(trifluoromethyl)phenyl]sulfonyl]-tetrahydro-pyran-2-yl]-5-(trifluoromethyl)-pyridine]: the inhibition at 3 µM lay within 75 to 95%.

Regarding `CC1(S(=O)(=O)c2cccc(C(F)(F)F)c2)CCOC(c2ccc(N3CCCC3)nc2)C1` (stereo not shown) [SC-400, 5-[4-Methyl-4-[[3-(trifluoromethyl)phenyl]sulfonyl]-tetrahydro-pyran-2-yl]-2-pyrrolidin-1-yl-pyridine], the inhibition at 3 µM was over 95%. Turning to `CC1(S(=O)(=O)c2cccc(C(F)(F)F)c2)CCOC(c2ccc(-n3cncn3)nc2)C1` (stereo not shown) [SC-402, 5-[4-Methyl-4-[[3-(trifluoromethyl)phenyl]sulfonyl]-tetrahydro-pyran-2-yl]-2-(1H-[1,2,4]triazol-1-yl)-pyridine], the inhibition at 3 µM fell in the range of 75 to 95%. Consider `COCCOc1ccc(C2CC(C)(S(=O)(=O)c3cccc(C(F)(F)F)c3)CCO2)cn1` (stereo not shown) [SC-404, 2-(2-Methoxy-ethoxy)-5-[4-methyl-4-[[3-(trifluoromethyl)phenyl]sulfonyl]-tetrahydro-pyran-2-yl]-pyridine], for which the inhibition at 3 µM was 75 to 95%.

As to `CNc1ccc(C2CC(C)(S(=O)(=O)c3cccc(C(F)(F)F)c3)CCO2)cn1` (stereo not shown) [SC-408, Methyl-[5-[4-methyl-4-[[3-(trifluoromethyl)phenyl]sulfonyl]-tetrahydro-pyran-2-yl]-pyridin-2-yl]-amine], the inhibition at 3 µM fell in the range of 75 to 95%. Still for that read-out and setting: the figure for `COc1ncc(C2CC(C)(S(=O)(=O)c3cccc(C(F)(F)F)c3)CCO2)cn1` (stereo not shown) [SC-410, 2-Methoxy-5-[4-methyl-4-[[3-(trifluoromethyl)phenyl]sulfonyl]-tetrahydro-pyran-2-yl]-pyrimidine] is 40 to 75%; for `CN(C)c1ncc(C2CC(C)(S(=O)(=O)c3cccc(C(F)(F)F)c3)CCO2)cn1` (stereo not shown) [SC-413, Dimethyl-[5-[4-methyl-4-[[3-(trifluoromethyl)phenyl]sulfonyl]-tetrahydro-pyran-2-yl]-pyrimidin-2-yl]-amine] it is 75 to 95%; for `COc1cnc(C2CC(C)(S(=O)(=O)c3cccc(C(F)(F)F)c3)CCO2)cn1` (stereo not shown) [SC-415, 2-Methoxy-5-[4-methyl-4-[[3-(trifluoromethyl)phenyl]sulfonyl]-tetrahydro-pyran-2-yl]-pyrazine] it is 75 to 95%.
